Experimental findings from the METLIN SMRT retention time set (Domingo-Almenara et al. 2019) are described below.

A short description of the series: gradient 5% acetonitrile 3 min, to 50% in 2 min, to 85% in 15 min, held 3 min, 100 µL/min. To be noted: column: Zorbax Extend-C18 2.1 x 50 mm; eluents: water / acetonitrile, 0.1% formic acid. The procedure, abridged: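 Retention times come from adduct peaks that were picked computationally and then checked by hand. The standards, pure and pooled in mixtures of ~100 molecules, were run on a Zorbax Extend-C18 column (2.1 × 50 mm, 1.8 μm) at 100 μL/min with water and acetonitrile, each with 0.1% formic acid. Detection was by quadrupole time-of-flight mass spectrometry in positive and negative ionization mode, with a dead volume of 40 μL and a dwell volume of 900 μL.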
For the compound `CCc1nc(-c2csc(S(=O)(=O)N3CCCC(C(=O)Nc4ccc(F)cc4)C3)c2)no1` (stereo not given), the RP-LC retention time stood at 1030 s.
In the case of `CCN1CCN(c2ccc(NC(=O)c3cccc(C)c3)cn2)C1=O` it was 742 s; in that of `COc1ccccc1OCCNC(=O)c1ccc2[nH]c3c(c2c1)CN(C(C)=O)CC3`, 680 s.
Turning to `CC(C)CN1C(=O)c2cccn2CC1C(=O)NCCN(C)C1CCCCC1` (stereo not given), the RP-LC retention time was found to be 614 s.
`O=S(=O)(c1ccccc1F)N1CCc2nc(-c3ccc(Cl)cc3)ncc2C1`: the RP-LC retention time amounted to 1190 s.
Under `CCOC(=O)c1nc(NCc2ccc(CC)cc2)c2ccccc2n1` stands 869 s; under `COC(=O)CCNC(=O)C1c2ccccc2C(=O)N(CC(C)C)C12CCCCC2` (stereo not given), 842 s; under `Cc1sc(C)c(S(=O)(=O)NCc2ccccc2Cl)c1-c1cc(C(F)(F)F)on1`, 653 s.
In the case of `CN1C2CCC1CC(OC(=O)[C@H](CO)c1ccccc1)C2` (stereo not given in full) it was 667 s; in that of `O=C(Cc1csc(COc2ccccc2)n1)N1CCN(c2ccccn2)CC1`, 617 s.
Take `Cc1ccc2[nH]cc(CCNC(=O)CCC(=O)N3CCSc4c3c(C)nn4-c3ccccc3)c2c1`: the RP-LC retention time was determined as 896 s.
Consider `CC(C)CCNC(=O)C1(C)CCC(=O)N1CCc1c[nH]c2ccccc12` (stereo not given), for which the RP-LC retention time worked out at 786 s.
Turning to `CC(C)(C)c1ccc(-c2csc(N)n2)cc1`, the RP-LC retention time stood at 666 s.
Regarding `O=C(Cn1c(=O)cc(-c2nc(C3CC3)no2)c2ccccc21)NC1CCCC1`, the RP-LC retention time turned out to be 869 s.
Consider `COc1cc(NC(=O)c2cnc3c(c2)c(=O)n(C)c(=O)n3-c2ccc(C)cc2)cc(OC)c1`, for which the RP-LC retention time was determined as 952 s.
In turn, `O=C(c1cccs1)N1CCC2(CC1)N=C(c1ccccc1)NO2` showed an RP-LC retention time of 747 s.
The compound `COCCN1C(=O)c2ccccc2C(C(=O)NCc2ccccc2OC)C1c1ccc(F)cc1` (stereo not given) registered an RP-LC retention time of 924 s.
Under `CCN(CC)C(=O)Cn1c(=O)c2cnc(-c3ccc(Cl)cc3)nc2n(CC)c1=O` stands 740 s; under `CSc1cccc(NC(=O)Cn2c(=O)n(-c3ccc(F)cc3)c(=O)c3c2cc(C)n3C)c1`, 896 s; under `Cc1ccc(NC(=O)C2CCN(S(C)(=O)=O)c3ccccc3O2)c(C)c1` (stereo not given), 894 s.
Under `Cc1nn(C(=O)C2CC2)c(C)c1Sc1ccccc1[N+](=O)[O-]` stands 1110 s; under `CCNC(=O)c1ccc(-n2c(C)ccc2C)nc1`, 566 s; under `O=C(N1CCC(Cc2ccc(COc3cccnc3)cc2)CC1)C1(c2ccccc2)CC1`, 891 s.
As to `COc1ccc(-c2nnc(Cc3nc(-c4cccc(C)c4)no3)o2)cc1OC`, the RP-LC retention time turned out to be 983 s.
In the case of `CCCn1cc(CCNS(=O)(=O)c2cccc(F)c2)c2cccnc21` it was 837 s; in that of `COc1ccc(C(=O)N2CCc3nc(CNC(=O)C4CCC4)n(C)c3C2)cc1`, 516 s; in that of `Cc1cc(C(=O)Nc2nc(-c3ccc(F)cc3)c(C)s2)no1`, 976 s.
Under `O=C(Nc1ccc(N2CCOCC2)cc1)C1CCCN(c2ncc(-c3cccc(F)c3)cn2)C1` (stereo not given) stands 969 s; under `CN(CC1(C)CCOCC1)C(=O)Cc1ccccc1Cl`, 818 s; under `CCC(CO)NCc1ccc(-c2ccccc2)o1` (stereo not given), 624 s.
In turn, `CCCn1cc(-c2ccncc2)cc1C(=O)NCc1cc(F)cc(F)c1` yielded an RP-LC retention time of 711 s.
In the case of `O=C(NCC1CCCO1)N1CCCn2nc(-c3cccc(Cl)c3)cc2C1` (stereo not given) it was 792 s; in that of `CC(C)(C)OC(=O)CN(c1ccc(F)cc1)S(=O)(=O)c1cccn2cnnc12`, 776 s.
In the case of `Cc1nc(Cn2cccc2C(=O)Nc2ccc(C(C)C)cc2)no1` it was 982 s; in that of `CCc1nn(CC(=O)N2CCC(C(N)=O)CC2)c(=O)c2cc3occc3n12`, 612 s.
In the case of `CCOc1cccc(-c2noc(Cn3c(=O)n(-c4cccc(F)c4)c(=O)c4sccc43)n2)c1` it was 1040 s; in that of `O=C(N[C@@H]1CN(c2ccncn2)C[C@H]1CO)c1ccc2ccccc2n1`, 604 s; in that of `Cc1ccc(-n2c(N3CCCC(C(=O)NCCC(C)C)C3)nc3ccsc3c2=O)cc1` (stereo not given), 955 s.
`O=C(Cn1c(-c2nnco2)cc2ccccc21)NCC1CCCO1` (stereo not given) came in with an RP-LC retention time of 668 s.
Under `CC(C)(C)c1csc(-c2csc(S(=O)(=O)Nc3ccc(Cl)cc3F)c2)n1` stands 1300 s; under `Cc1ccccc1CNS(=O)(=O)c1cn(CC(C)C)c2ncccc12`, 763 s; under `Cc1ccccc1Nc1c(-c2cccc(Cl)c2)nc2ccc(Cl)cn12`, 1080 s.
Under `CC(C)CCN1CCC(N2CCN(S(=O)(=O)Cc3cccc(Cl)c3)CC2)C1=O` (stereo not given) stands 699 s.
In the case of `Cc1cc(C)n(CCC(=O)NCCn2c(C)cnc2C2CCC2)n1` it was 577 s; in that of `CCOC(=O)c1cc(S(=O)(=O)N2CCCC2C(=O)Nc2ccc(C(C)C)cc2)cn1C` (stereo not given), 1070 s.
For `O=c1cccnn1CCCNS(=O)(=O)c1ccc2c(c1)OCCO2`, the RP-LC retention time was 645 s.
Under `O=C1COc2ccc(-c3csc(NC(=O)c4ccc(Cl)cc4)n3)cc2N1` stands 899 s; under `COC(=O)c1ccccc1NC(=O)C12CCC(C1)C(C)(C)C2=O` (stereo not given), 951 s.
The compound `CC1(C)C(=O)N(CC(=O)N2CCc3ccccc3C2)c2ccccc21` gave an RP-LC retention time of 930 s.
`COc1ccc(S(=O)(=O)N2CCc3c(c(-c4nnc(-c5ccccc5)o4)nn3C)C2)cc1Cl` yielded an RP-LC retention time of 990 s.
In the case of `COc1ccccc1Nc1c(-c2ccccc2)nc2cnccn12` it was 875 s; in that of `O=C(N[C@H]1C[C@@H]2C[C@H]1N(C(=O)c1ccccc1C(F)(F)F)C2)c1ccccc1`, 778 s.
In the case of `COc1ccc(Cl)cc1N1C=C(C#N)S(=O)(=O)c2ccc(F)cc21` it was 968 s.
Under `Cc1cc(NC(=O)C2CCN(C(=O)c3cc(-c4ccc5c(c4)OCO5)n[nH]3)CC2)no1` stands 671 s; under `O=C(Nc1ccccc1F)NC1CCN(C(=O)N2C[C@H]3C[C@H](C2)[C@H]2CCCC(=O)N2C3)CC1`, 677 s; under `Cc1ccc(-c2nnc(Cc3nc(-c4cccc(C)c4)no3)o2)cc1`, 1110 s.
On to `Cc1cc(C(=O)NCCCSC2CCCCC2)n(-c2ccccc2)n1`, for which the RP-LC retention time stood at 1030 s.
In the case of `CCN1c2ccc(C)cc2C(=O)NC12CCN(C(=O)c1ccc(OC)cc1OC)CC2` it was 774 s.
In the case of `CCS(=O)(=O)Nc1ccc(C2(C(=O)NCC(C)C)CCCCC2)cc1` it was 879 s; in that of `O=C(Cn1c(-c2cccs2)cc2cc(F)ccc21)NCCN1CCOCC1`, 680 s; in that of `O=C(C1CCCN(c2cnc3nccnc3c2)C1)N1CCN(c2ccccc2F)CC1` (stereo not given), 778 s.
`O=C(CN1C(=O)CCCc2cc(S(=O)(=O)N3CCCC3)ccc21)Nc1ccc(F)cc1Cl` had an RP-LC retention time of 857 s.
Under `CCOC(=O)N1CCN(/C=C2\Oc3c(ccc(O)c3C)C2=O)CC1` stands 637 s; under `Cc1noc(-c2ccc(OC3CN(C(=O)NCCc4ccccc4)C3)cc2)n1`, 880 s; under `Cc1cc(-c2nn3c(COc4ccc(Cl)cc4)nnc3s2)no1`, 948 s.
`O=C(CN1C(=O)CCCc2cc(S(=O)(=O)N3CCCCC3)ccc21)N1CCc2ccccc2C1` displayed an RP-LC retention time of 922 s.
Under `Cc1nnc(-c2c(S(=O)(=O)N3CCC(Cc4ccccc4)CC3)c(C)n(C)c2C)o1` stands 931 s; under `Cc1c(Cl)cccc1NC(=O)CN1C(=O)NC2(CCCCC2)C1=O`, 779 s; under `CCCNC(=O)Cc1c(C)n(C)c2nc(-c3ccccc3)nn2c1=O`, 660 s.
Under `O=C(Nc1ccccc1Br)N1CCN(CCn2cnc3cccnc32)CC1` stands 595 s; under `Cc1ccc(-c2nc(CN3CCOCC3)c(C)o2)cc1`, 640 s.
`CCOc1cccc(C2c3[nH]c4ccccc4c3CCN2C(=O)c2cccnc2)c1` (stereo not given) had an RP-LC retention time of 968 s.
In the case of `CC(NC(=O)C1c2ccccc2CCN1C(=O)C1CC1)c1ccc(F)cc1` (stereo not given) it was 875 s; in that of `CS(=O)(=O)c1ccc(Cc2nnc(NC(=O)C3CCCC3)o2)cc1`, 632 s.
In the case of `CCCCS(=O)(=O)c1cc2c(cc1NC(=O)c1ccccc1)n(C)c(=O)n2C` it was 887 s; in that of `CCCCC(=O)Nc1nnc(SCc2nnc(-c3ccccc3)o2)s1`, 854 s; in that of `CCC(=O)N1CCc2cc(N3CC(C(=O)Nc4cccc(OC)c4)CC3=O)ccc21` (stereo not given), 750 s.
In the case of `COc1ccc(S(=O)(=O)N2CCCC(C(=O)NCCCO)C2)cc1C` (stereo not given), the RP-LC retention time came out at 709 s.
In turn, `Cc1ccc(C(=O)NCCn2c(=O)n(Cc3ccc(F)cc3)c3cccnc32)s1` registered an RP-LC retention time of 781 s.
As to `CCC1CN(C(=O)N2CCC(C(=O)NCCN3CCN(C)CC3)CC2)c2ccccc2O1` (stereo not given), the RP-LC retention time worked out at 606 s.
